Test system: anesthetized open-chest dogs
Assay: Hemodynamics of anesthetized open-chest dogs, intravenous infusion
Assay type: in vivo, mongrel dogs
Procedure: The animals were anesthetized by intravenous injection of 30 mg/kg sodium pentobarbital, tracheally intubated, and mechanically ventilated with positive air pressure. Left thoracotomy was performed through the fourth intercostal space and the heart was suspended in a pericardial cradle, the aortic root was isolated and a probe of blood flow meter (12 or 14 mm in diameter) was fixed to measure the aortic blood flow as a representation of cardiac output (CO), the circumflex branch of left coronary artery was isolated and a probe of blood flow meter (2 or 2.5 mm in diameter) was fixed to measure the coronary blood flow (CBF). A polyethylene catheter filled with heparin physiological saline was inserted through cardiac apex into the left ventricle to measure the left ventricular pressure (LVP) and left ventricular end-diastolic pressure (LVEDP), Peak positive and peak negative first derivatives of the LVP (+ LVdp/dt and − LVdp/dt) were calculated with the Acknowledge software. The systolic blood pressure (SBP), diastolic blood pressure (DBP) and mean arterial pressure (MAP) were measured by polyethylene catheter via the femoral artery, ECG □ was measured by a AC-601G ECG amplifier. The above-mentioned analog signal was input into a data acquisition workstation (MP100, BIOPAC Systems, USA) to a computer running Acknowledge (version 3.7.1).
After surgery, various indexes before administration were recorded until the indexes were stable, and then intravenous infusion administration was conducted. Thirty dogs were divided into five groups (six dogs in each group), the experiment groups were given 0.15, 0.3, 0.6 mg/kg of ASP-[…] respectively, the normal control group was given 1 ml/kg of solvent, and the positive control group was given 0.3 mg/kg of astragaloside IV. The delivery volumes were 15 ml for each dog was and the delivery velocity was 1 ml/min. The indexes were recorded at 5, 10, 15, 20, 30, 45, 60, 90 and 120 mins after drug administration. At the end of experiment, the hearts were excised and weighted. The myocardial blood flow for per hectogram (CF), coronary resistance (CR), cardiac index (CI), left ventricular work (LVW) and total peripheral resistance (TPR) were calculated according to the following formulae: CF=CBF×[…]/heart weight CR=MAP/CF CI=CO/0.11×(body weight)^2/3 LVW=CO×(MAP−5)×1.052×0.0136 TPR=MAP×79.92/CO
Data are expressed as mean±SD ( x±s), the paired t-test was used to compare the significance between before and after administration, the unpaired t-test was adopted for comparison between groups.

[1] = 0.3 mg/kg iv, 45 min after administration
[2] = 0.3 mg/kg iv, 60 min after administration
[3] = 0.3 mg/kg iv, 90 min after administration
[4] = 0.3 mg/kg iv, 120 min after administration
[5] = 0.3 mg/kg iv, before administration
[6] = 0.6 mg/kg iv, 5 min after administration
[7] = 0.6 mg/kg iv, 10 min after administration
[8] = 0.6 mg/kg iv, 15 min after administration

## CC(C)(O)[C@@H]1CC[C@](C)([C@H]2[C@@H](O)C[C@@]3(C)C4C[C@H](OC5OC(CO)C(O)C(O)C5O)C5C(C)(C)[C@@H](O)CC[C@@]56C[C@@]46CC[C@]23C)O1 (stereo partly drawn) [CMG, Cycloastragenol-6-O-β-D-glucoside]
0.3 mg/kg iv, 30 min after administration
  −dp/dt change vs before administration: (36 ± 97) mmHg/s
[1]
  CF: 51.7 ± 23.5 ml/min/100 g
  CF change vs before administration: (1.6 ± 6.8) ml/min/100 g
  CI: 1.85 ± 0.84 L/min/m^2
  CI change vs before administration: (−0.13 ± 0.13) L/min/m^2
  CO: 1.03 ± 0.39 L/min
  CO change vs before administration: (−0.07 ± 0.07) L/min
  CR: 1.65 ± 0.92 mmHg/ml/min/100 g
  CR change vs before administration: (0.11 ± 0.29) mmHg/ml/min/100 g
  LVEDP: 0.5 ± 2.3 mmHg
  LVEDP change vs before administration: (−1.28 ± 0.75) mmHg
  LVP: 98 ± 22 mmHg
  LVP change vs before administration: (−4.8 ± 5.5) mmHg
  LVW: 1.00 ± 0.48 kg · m
  LVW change vs before administration: (−0.02 ± 0.11) kg · m
  TPR: 6068 ± 2331 dyn · s/cm^5
  TPR change vs before administration: (768 ± 937) dyn · s/cm^5
  dp/dt: 1285 ± 453 mmHg/s
  dp/dt change vs before administration: (24 ± 83) mmHg/s
  −dp/dt: −878 ± 266 mmHg/s
  −dp/dt change vs before administration: (43 ± 117) mmHg/s
[2]
  CF: 51.7 ± 23.9 ml/min/100 g
  CF change vs before administration: (1.6 ± 6.8) ml/min/100 g
  CI: 1.80 ± 0.93 L/min/m^2
  CI change vs before administration: (−0.19 ± 0.42) L/min/m^2
  CO: 1.00 ± 0.45 L/min
  CO change vs before administration: (−0.10 ± 0.25) L/min
  CR: 1.54 ± 0.75 mmHg/ml/min/100 g
  CR change vs before administration: (0.01 ± 0.19) mmHg/ml/min/100 g
  LVEDP: 0.8 ± 2.8 mmHg
  LVEDP change vs before administration: (−0.98 ± 0.88) mmHg
  LVP: 98 ± 22 mmHg
  LVP change vs before administration: (−5.7 ± 6.0) mmHg
  LVW: 0.90 ± 0.43 kg · m
  LVW change vs before administration: (−0.12 ± 0.26) kg · m
  TPR: 6625 ± 4423 dyn · s/cm^5
  TPR change vs before administration: (1326 ± 3485) dyn · s/cm^5
  dp/dt: 1272 ± 479 mmHg/s
  dp/dt change vs before administration: (11 ± 94) mmHg/s
  −dp/dt: −833 ± 236 mmHg/s
  −dp/dt change vs before administration: (88 ± 199) mmHg/s
[3]
  CF: 51.1 ± 19.1 ml/min/100 g
  CF change vs before administration: (1.0 ± 4.7) ml/min/100 g
  CI: 1.74 ± 0.98 L/min/m^2
  CI change vs before administration: (−0.25 ± 0.42) L/min/m^2
  CO: 0.96 ± 0.47 L/min
  CO change vs before administration: (−0.14 ± 0.24) L/min
  CR: 1.51 ± 0.66 mmHg/ml/min/100 g
  CR change vs before administration: (−0.02 ± 0.16) mmHg/ml/min/100 g
  LVEDP: 0.9 ± 2.6 mmHg
  LVEDP change vs before administration: (−0.83 ± 0.72) mmHg
  LVP: 99 ± 20 mmHg
  LVP change vs before administration: (−4.5 ± 7.0) mmHg
  LVW: 0.90 ± 0.53 kg · m
  LVW change vs before administration: (−0.12 ± 0.32) kg · m
  TPR: 7000 ± 4452 dyn · s/cm^5
  TPR change vs before administration: (1701 ± 3472 dyn · s/cm^5
  dp/dt: 1242 ± 437 mmHg/s
  dp/dt change vs before administration: (−19 ± 39) mmHg/s
  −dp/dt: −909 ± 312 mmHg/s
  −dp/dt change vs before administration: (12 ± 172) mmHg/s
[4]
  CF: 50.7 ± 20.1 ml/min/100 g
  CF change vs before administration: (0.5 ± 2.0) ml/min/100 g
  CI: 1.81 ± 1.07 L/min/m^2
  CI change vs before administration: (−0.17 ± 0.52) L/min/m^2
  CO: 1.00 ± 0.52 L/min
  CO change vs before administration: (−0.10 ± 0.30) L/min
  CR: 1.60 ± 0.82 mmHg/ml/min/100 g
  CR change vs before administration: (0.07 ± 0.21) mmHg/ml/min/100 g
  LVEDP: 1.0 ± 2.1 mmHg
  LVEDP change vs before administration: (−0.71 ± 0.45) mmHg
  LVP: 100 ± 23 mmHg
  LVP change vs before administration: (−3.5 ± 10.3) mmHg
  LVW: 0.94 ± 0.54 kg · m
  LVW change vs before administration: (−0.08 ± 0.37) kg · m
  TPR: 7219 ± 5040 dyn · s/cm^5
  TPR change vs before administration: (1920 ± 3990) dyn · s/cm^5
  dp/dt: 1309 ± 433 mmHg/s
  dp/dt change vs before administration: (48 ± 92) mmHg/s
  −dp/dt: −894 ± 278 mmHg/s
  −dp/dt change vs before administration: (27 ± 63) mmHg/s
0.3 mg/kg iv, at 5-10 min after administration
  +LVdp/dtmax maximum increase: 12.0±5.0%
[5]
  CF: 50.2 ± 19.5 ml/min/100 g
  CI: 1.98 ± 0.84 L/min/m^2
  CO: 1.10 ± 0.38 L/min
  CR: 1.53 ± 0.67 mmHg/ml/min/100 g
  LVEDP: 1.7 ± 2.2 mmHg
  LVP: 103 ± 20 mmHg
  LVW: 1.02 ± 0.47 kg · m
  TPR: 5299 ± 1597 dyn · s/cm^5
  dp/dt: 1261 ± 453 mmHg/s
  −dp/dt: −921 ± 311 mmHg/s
0.6 mg/kg iv
  LVEDP maximum decrease: 2.1±0.5 mmHg
[6]
  CF: 51.7 ± 10.5 ml/min/100 g
  CF change vs before administration: (0.5 ± 3.1) ml/min/100 g
  CI: 2.00 ± 0.56 L/min/m^2
  CI change vs before administration: (0.04 ± 0.16) L/min/m^2
  CO: 1.18 ± 0.42 L/min
  CO change vs before administration: (0.03 ± 0.09) L/min
  CR: 1.44 ± 0.39 mmHg/ml/min/100 g
  CR change vs before administration: (0.02 ± 0.08) mmHg/ml/min/100 g
  LVEDP: 1.5 ± 1.6 mmHg
  LVEDP change vs before administration: (−1.17 ± 0.78) mmHg
  LVP: 105 ± 14 mmHg
  LVP change vs before administration: (−1.1 ± 3.5) mmHg
  LVW: 1.11 ± 0.38 kg · m
  LVW change vs before administration: (0.03 ± 0.11) kg · m
  TPR: 5474 ± 2219 dyn · s/cm^5
  TPR change vs before administration: (−32 ± 572) dyn · s/cm^5
  dp/dt: 1186 ± 316 mmHg/s
  dp/dt change vs before administration: (83 ± 55) mmHg/s
  −dp/dt: −850 ± 223 mmHg/s
  −dp/dt change vs before administration: (2 ± 31) mmHg/s
[7]
  CF: 51.2 ± 8.4 ml/min/100 g
  CF change vs before administration: (0.0 ± 2.2) ml/min/100 g
  CI: 2.01 ± 0.39 L/min/m^2
  CI change vs before administration: (0.05 ± 0.20) L/min/m^2
  CO: 1.17 ± 0.33 L/min
  CO change vs before administration: (0.02 ± 0.11) L/min
  CR: 1.44 ± 0.40 mmHg/ml/min/100 g
  CR change vs before administration: (0.03 ± 0.12) mmHg/ml/min/100 g
  LVEDP: 0.9 ± 1.6 mmHg
  LVEDP change vs before administration: (−1.74 ± 0.68) mmHg
  LVP: 105 ± 17 mmHg
  LVP change vs before administration: (−1.3 ± 5.0) mmHg
  LVW: 1.11 ± 0.34 kg · m
  LVW change vs before administration: (0.03 ± 0.15) kg · m
  TPR: 5261 ± 1874 dyn · s/cm^5
  TPR change vs before administration: (−246 ± 497) dyn · s/cm^5
  dp/dt: 1198 ± 278 mmHg/s
  dp/dt change vs before administration: (95 ± 70) mmHg/s
  −dp/dt: −857 ± 238 mmHg/s
  −dp/dt change vs before administration: (−4 ± 46) mmHg/s
[8]
  CF: 51.4 ± 8.3 ml/min/100 g
  CF change vs before administration: (0.2 ± 3.7) ml/min/100 g
  CI: 2.05 ± 0.50 L/min/m^2
  CI change vs before administration: (0.09 ± 0.16) L/min/m^2
  CO: 1.20 ± 0.38 L/min
  CO change vs before administration: (0.05 ± 0.09) L/min
  CR: 1.43 ± 0.35 mmHg/ml/min/100 g
  CR change vs before administration: (0.01 ± 0.07) mmHg/ml/min/100 g
  LVEDP: 1.3 ± 1.6 mmHg
  LVEDP change vs before administration: (−1.38 ± 0.51) mmHg
  LVP: 105 ± 17 mmHg
  LVP change vs before administration: (−0.8 ± 4.1) mmHg
  LVW: 1.14 ± 0.41 kg · m
